Test results reported in ChEMBL document CHEMBL3045350, “Inheritance of resistance to a new non-steroidal ecdysone agonist, fufenozide, in the diamondback moth, Plutella xylostella (Lepidoptera: Plutellidae)” (2010).
Values after ≈ are worked out from the molar mass of the structure shown.

Key:
Format in all cases: functional
Plutella xylostella [1] = assay: Insecticidal activity against F2 generation of third-instar larvae of Plutella xylostella (diamondback moth) in cabbage leaf assessed as mortality after 96 hr by leaf dip method; conditions: foliar
Plutella xylostella [2] = assay: Resistant ratio, ratio of LC50 for F1 generation of third-instar larvae of Plutella xylostella (diamondback moth) to LC50 for fufenozide-susceptible third-instar larvae of Plutella xylostella
Plutella xylostella [3] = assay: Resistant ratio, ratio of LC50 for F'1 generation of third-instar larvae of Plutella xylostella (diamondback moth) to LC50 for fufenozide-susceptible third-instar larvae of Plutella xylostella
Plutella xylostella [4] = assay: Resistant ratio, ratio of LC50 for F2 generation of third-instar larvae of Plutella xylostella (diamondback moth) to LC50 for fufenozide-susceptible third-instar larvae of Plutella xylostella
Plutella xylostella [5] = assay: Insecticidal activity against F1 generation of third-instar larvae of Plutella xylostella (diamondback moth) in cabbage leaf assessed as mortality after 96 hr by leaf dip method; conditions: foliar
Plutella xylostella [6] = assay: Resistant ratio, ratio of LC50 for F1 pooled generation of third-instar larvae of Plutella xylostella (diamondback moth) to LC50 for fufenozide-susceptible third-instar larvae of Plutella xylostella
Plutella xylostella [7] = assay: Insecticidal activity against F1 pooled generation of third-instar larvae of Plutella xylostella (diamondback moth) in cabbage leaf assessed as mortality after 96 hr by leaf dip method; conditions: foliar
Plutella xylostella [8] = assay: Resistant ratio, ratio of LC50 for backcrossed third-instar larvae of Plutella xylostella (diamondback moth) to LC50 for fufenozide-susceptible third-instar larvae of Plutella xylostella
Plutella xylostella [9] = assay: Insecticidal activity against fufenozide-resistant 39th generation of third-instar larvae of Plutella xylostella (diamondback moth) in cabbage leaf assessed as mortality after 96 hr by leaf dip method; conditions: foliar
Plutella xylostella [10] = assay: Insecticidal activity against fufenozide-susceptible third-instar larvae of Plutella xylostella (diamondback moth) in cabbage leaf assessed as mortality after 96 hr by leaf dip method; conditions: foliar
Plutella xylostella [11] = assay: Insecticidal activity against F'1 generation of third-instar larvae of Plutella xylostella (diamondback moth) in cabbage leaf assessed as mortality after 96 hr by leaf dip method; conditions: foliar
Plutella xylostella [12] = assay: Insecticidal activity against backcrossed third-instar larvae of Plutella xylostella (diamondback moth) in cabbage leaf assessed as mortality after 96 hr by leaf dip method; conditions: foliar

In the case of `Cc1cc(C)cc(C(=O)N(NC(=O)c2ccc3c(c2C)OC(C)C3)C(C)(C)C)c1` (configuration not stated) [FUXIAN], the LC50 (Plutella xylostella [1]) is reported as 5 µg/mL (≈ 12.7 µM), the RatioLC50 (Plutella xylostella [2]) is reported as 1.76 and the RatioLC50 (Plutella xylostella [3]) is reported as 2.09. For the same molecule, the RatioLC50 (Plutella xylostella [4]) was 2.24, the LC50 (Plutella xylostella [5]) was 5.22 µg/mL (≈ 13.2 µM) and the RatioLC50 (Plutella xylostella [6]) was 2.61. It also gave an LC50 (Plutella xylostella [7]) of 5.82 µg/mL (≈ 14.8 µM), a RatioLC50 (Plutella xylostella [8]) of 2.33 and an LC50 (Plutella xylostella [9]) of 1480 µM. The LC50 (Plutella xylostella [10]) was 2.23 µg/mL (≈ 5.66 µM), the LC50 (Plutella xylostella [11]) was 6.22 µg/mL (≈ 15.8 µM) and the LC50 (Plutella xylostella [12]) was 6.93 µg/mL (≈ 17.6 µM).
